Experimental data from patent US12428433B2, “Fluorine-containing heterocyclic derivatives with macrocyclic structure and use thereof” (ScinnoHub Pharmaceutical Co., Ltd, priority 2019, dated 2025).
Read-outs that look alike come from different tables or passages of the source.

Experiments:
Assay type in all cases: cell-based
[1] = system: Ba/F3 EVT6-NTRK3-G623R; test: In-vitro cell viability (CTG), NTRK mutant cells; details: for IC50: Mus musculus, read-out: Ba/F3 EVT6-NTRK3-G623R IC50
Experimental: (§1) Hefei Precedo Biomedical Technology Co., Ltd. was commissioned to complete the testing example, and NTRK mutant cells used were constructed by this company.
(§2) Inhibitory effects of the compound of the present application on growth of three NTRK mutant cells (Ba/F3 LMNA-NTRK1-G667C, Ba/F3 EVT6-NTRK3-G623R and Ba/F3 LMNA-NTRK1-G595R) were measured.
(§3) Cells in logarithmic growth phase were collected and counted by a blood platelet counter, a cell concentration was adjusted to 3 to 6×10^4 cell/mL, 90 μL of cell suspension was added into a 96-well plate, and cells in the 96-well plate were cultured at 37° C. under 5% CO2 and 95% humidity overnight.
(§4) The to-be-tested compound was prepared into a 10 times drug solution in a medium containing 1% DMSO, with […] and the drug solution was diluted by 3 times in sequence to obtain drug solutions with 9 concentrations in total. […] 10 μL of prepared drug solution was added into each well of the 96-well plate in which the cells were inoculated. Then, 90 μL of medium containing 1% DMSO was added to obtain a drug solution with a highest concentration of 1 μM, and the drug solution was diluted by 3 times in sequence to obtain drug solutions with 9 concentrations in total. A final concentration of DMSO in each well was 0.1%, and three multiple wells were provided for the drug of each concentration. The cells in the 96-well plate in which the drug has been added were cultured at 37° C. under 5% CO2 and 95% humidity for 72 hours, and then subjected to CTG analysis.
(§5) An equal volume of CTG solution was added into each well, the 96-well plate was placed at room temperature for 20 minutes to stabilize a luminescence signal, and a luminescence value was read.
(§6) Data was analyzed by GraphPad Prism 7.0 software, and fitted by nonlinear S-curve regression to obtain a dose-effect curve, from which an IC50 value was calculated. Cell survival rate (%)=(Lum to-be-tested drug−Lum medium control)/(Lum cell control−Lum medium control)×100%.

[2] = system: Ba/F3 LMNA-NTRK1-G595R; test: In-vitro cell viability (CTG), NTRK mutant cells; details: Mus musculus, read-out: Ba/F3 LMNA-NTRK1-G595R IC50
Experimental: as §1, §2, §3, §4, §5, §6

[3] = system: Ba/F3 LMNA-NTRK1-G667C; test: In-vitro cell viability (CTG), NTRK mutant cells; details: Mus musculus, read-out: Ba/F3 LMNA-NTRK1-G667C IC50
Experimental: as §1, §2, §3, §4, §5, §6

[4] = system: Ba/F3-LMNA-NTRK1-F589L; test: In-vitro cell viability (CellTiter-Glo), BaF3 cell lines; details: Mus musculus, 72 hours
Experimental: Hefei Precedo Biomedical Technology Co., Ltd. was commissioned to complete the testing example, and the cell lines used were constructed by this company.
In-vitro anti-proliferative effects of the compound of the present application on 6 BaF3 cell lines were measured.
6 Ba/F3 cell lines were cultured with RPMI 1640 (Biological Industries, Israel)+10% fetal calf serum (Biological Industries, Israel)+1% double antibiotics (Penicillin Streptomycin solution, Coring, USA), and cells were cultured for two generations after resuscitation, to be tested.
The to-be-tested compound was prepared into 10 mM mother solution with DMSO, and then diluted to 1 mM with DMSO. The solution was diluted by 3 times to prepare into 1.0000 mM, 0.3333 mM, 0.1111 mM, 0.03704 mM, 0.01235 mM, 0.00412 mM, 0.00137 mM, 0.00046 mM, 0.00015 mM, and […], and stored in a 96-well drug plate (Beaver, Suzhou), with 10 concentration gradients in total. Meanwhile, an equal volume of DMSO solvent was used as a negative control.
The prepared 1,000× compounds of 10 concentration gradients were respectively diluted by 50 times into 20× compounds with complete medium, and stored in a 96-well drug plate (Beaver, Suzhou), with 10 concentration gradients in total. Meanwhile, an equal volume of DMSO solvent was used as a negative control.
Cell suspension in logarithmic growth phase was inoculated on a 96-well white cell culture plate (Corning 3917, NY, USA), and a volume of each well was 95 μl (about 2000 cells/well).
5 μl of 20× to-be-tested compounds were respectively added into the culture plate containing 95 μl of cell suspension above, and mixed evenly, with 2 wells for each concentration gradient. Final concentrations of the to-be-tested compounds were 1.0000 μM, 0.3333 μM, 0.1111 μM, 0.03704 μM, 0.01235 μM, 0.00412 μM, 0.00137 μM, 0.00046 μM, 0.00015 μM, and […] respectively.
Incubation was carried out in an incubator at 37° C. under 5% CO2 for 72 hours.
The following steps were carried out according to the instruction of Promega CellTiter-Glo Luminescence Cell Viability Assay Kit (Promega-G7573).
A corresponding […] value RLU of each well was obtained through reading by SpectraMax Paradigm. Cell viability data was processed by the following formula:
Cell viability(%)=(RLUDrug−RLUMin)/(RLUMax−RLUMin)*100%. Cell viabilities of compounds of different concentrations were calculated in EXCEL, then cell viability curves were made by GraphPad Prism software, and related parameters were calculated. The parameters comprised a maximum cell viability, a minimum cell viability, and an IC50 value.

Structure (SMILES)	IC50 ([1]; BaF3, 72 h) [nM]	IC50 ([2]; BaF3, 72 h) [nM]	IC50 ([3]; BaF3, 72 h) [nM]	IC50 [4] [nM]	IC50 ([1]; BaF3, 72 hours, CTG) [nM]	IC50 ([2]; BaF3, 72 hours, CTG) [nM]	IC50 ([3]; BaF3, 72 hours, CTG) [nM]	inhibitory activity higher than that of the positive control compound 2 ([1]; Ba/F3 EVT6-NTRK3-G623R, data of Table 2) [times]
O=C1N[C@H]2C[C@H](C2)Oc2ncc(F)cc2[C@H]2CCCN2c2nc3c1cnn3cc2F [Example 2, ((1^3E,1^4E,2^2R,5^1S,5^3S)-1^6,3^5-difluoro-4-oxa-6-aza-1(5,3)-pyrazolo[1,5-a]pyrimidine-3(3,2)-pyridine-2(1,2)-pyrrolidine-5(1,3)-cyclobutancycloheptan-7-one]	14	2.3	3	2.4	–	–	–	–
O=C1N[C@H]2C[C@H](C2)Oc2ncc(F)cc2[C@H]2CCCN2c2ccn3ncc1c3n2 (stereo in doubt) [Positive control 1, reference compound]	–	–	–	6.6	18	1.8	1.8	–
C[C@H]1Nc2nc3c(cnn3cc2F)C(=O)N[C@H]2C[C@H](C2)Oc2ncc(F)cc21 [Example 3, (3^1S,3^3S,6^3E,6^4E,8R)-1^5,6^6-difluoro-8-methyl-2-oxo-4,7-diaza-6(3,5)-pyrazolo[1,5-a]pyrimidine-1(2,3)-pyridine-3(1,3)-cyclobutylcyclooctane-5-one]	–	–	–	1.2	25	4.5	3.2	4
C[C@H]1Nc2ccn3ncc(c3n2)C(=O)N[C@H]2C[C@H](C2)Oc2ncc(F)cc21 [Positive control 2, reference compound]	–	–	–	4.5	107	13	6.5	–
